# Reference: US8492440B2, “Difluorophenyldiacylhydrazide derivatives” (Merck Patent GmbH, priority 2008, dated 2013)
# What was measured:
# SGK1 [1] = target: T1, SGK1 (Homo sapiens, UniProt O00141); assay: SGK1 protein kinase inhibition (enzyme), filter binding method; type: biochemical
# T1 sequence (O00141 1-431): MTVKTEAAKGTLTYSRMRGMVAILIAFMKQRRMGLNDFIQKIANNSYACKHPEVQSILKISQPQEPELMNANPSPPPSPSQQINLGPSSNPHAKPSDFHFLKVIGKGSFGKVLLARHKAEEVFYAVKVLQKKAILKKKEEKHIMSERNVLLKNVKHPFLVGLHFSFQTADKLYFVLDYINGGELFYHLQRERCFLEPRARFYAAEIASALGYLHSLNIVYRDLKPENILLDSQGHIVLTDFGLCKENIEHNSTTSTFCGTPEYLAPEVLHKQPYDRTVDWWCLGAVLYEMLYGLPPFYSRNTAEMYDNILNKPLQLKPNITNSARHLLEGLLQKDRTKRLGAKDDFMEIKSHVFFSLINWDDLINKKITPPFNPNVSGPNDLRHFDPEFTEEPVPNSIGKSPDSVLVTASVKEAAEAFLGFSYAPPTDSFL
# Source text: Other assays are known from the literature and could readily be performed by the person skilled in the art (see, for example, Dhanabal et al., Cancer Res. 59:189-197; Xin et al., J. Biol. Chem. 274:9116-9121; Sheu et al., Anticancer Res. 18:4435-4441; Ausprunk et al., Dev. Biol. 38:237-248; Gimbrone et al., J. Natl. Cancer Inst. 52:413-427; Nicosia et al., In Vitro 18:538-549). The inhibition of SGK1 protein kinase can be determined in the filter binding method.
# SGK1 [2] = target: T1, SGK1; assay: Cell assay: P-NDRG1 level in HeLa cells (western blot), intracellular SGK1 inhibition; type: cell-based; set-up: endogenous in cells; host or cells: HeLa; conditions: decrease of NDRG1 phosphorylation, 24 hrs incubation
# Description: HeLa cells are plated out with a density of 10−20×10^3 cells/cm^2 in 6-well MTPs (Costar Corning, #3506) in DMEM medium, supplemented with 10% foetal calf serum (FCS), 2 mM glutamine and 1 mM sodium pyruvate. After 24 hrs. at 37° C. and with 5% CO2 in a cell incubator, each well is furthermore supplemented with 25 μl of a 100× DMSO solution of the compound; this solution is diluted 100-fold in the supernatant of the cell culture, which results in the expected SGK1 inhibitor concentration at a 1% DMSO concentration. The cells are incubated under the same conditions for a further 24 hrs.
# The supernatants are subsequently removed (by suction), and the cells are washed once with 1 ml/well of ice-cold phosphate-buffered saline solution (PBS). 250 μl of the ice-cold lysis buffer (50 mM tris/HCl, 1 mM EDTA, 1 mM EGTA, 0.5 mM activated Na3VO4, 10 mM glycerophosphate, 50 mM NaF, 5 mM Na pyrophosphate, 1% Triton X100, 1 mM DTT, 0.1 mM PMSF and 1 μM microcystine and in each case 1 μg/ml of aprotinin, pepstatin or leupeptin) are added to each well. The cells are scraped down from the base of the well, and the cell suspension is sucked up several times with an Eppendorf pipette; the cells are thereby lysed and homogenised. […] The binding of the primary antibody was determined using antisheep IG antibody conjugated to […] peroxidase (1:5000 dilution, Calbiochem), followed by amplified chemiluminescence (SuperSignal West Dura Extended Duration, Pierce). […] The NDRG1 levels are determined after stripping of the nitrocellulose membranes using Restore™ western blot stripping buffer and the Pierce method.
# On use of the P-NDRG1 antiserum, a decrease in the phosphorylation level of the NDRG1 protein can easily be detected. The decrease in the intensity of the bands in the western blot on use of the P-NDRG1 antiserum is determined, plotted against the cell culture medium concentration of the SGK1 inhibitor in a semi-logarithmic diagram and used for assessment of the intracellular inhibitor efficacy ([…]) of the SGK1 inhibitor. […]
SMILES,IC50 (SGK1 [1]),melting point,IC50 (SGK1 [2])
"CCc1c(C(=O)NNC(=O)Cc2cc(F)c(F)c(OC)c2)ccc(O)c1C [Compound 1, N′-[2-(3,4-difluoro-5-methoxyphenyl)acetyl]-2-ethyl-4-hydroxy-3-methyl-benzohydrazide]",< 0.01 µM,217 °C,< 0.5 µM
"CCc1c(C(=O)NNC(=O)Cc2cc(F)c(F)cc2OC)ccc(O)c1C [Compound 2, N′-[2-(3,4-Difluoro-6-methoxyphenyl)acetyl]-2-ethyl-4-hydroxy-3-methyl-benzohydrazide]",> 0.01 µM,220.7 °C,> 0.5 µM
"CCc1c(C(=O)NNC(=O)Cc2ccc(F)c(F)c2)ccc(O)c1C [Compound 3, N′-[2-(3,4-Difluorophenyl)acetyl]-2-ethyl-4-hydroxy-3-methylbenzohydrazide]",> 0.01 µM,–,> 0.5 µM
